Source: the supplement of paper PMC11061612

Tests used:
Assay in all cases: Bliss excess, mean over the matrix (fraction); higher = more synergy
[1] = system: NCI-H1688 (Small Cell Lung Carcinoma)
How it was run: (§1)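 Bliss excess equals the observed combination effect minus the expected value EA + EB − EA·EB, where EA and EB are the effects of each agent alone. Combination Emax is the second-highest inhibition within the matrix. Inhibition was scaled from CellTiter-Glo 2.0 luminescence, with 0 set by vehicle wells and 1 by blank wells, after 72 hours of two-drug dosing of cells plated in 1536-well plates.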

CS1 (Chondrosarcoma) = system: CS1 (Chondrosarcoma)
How it was run: as §1

[2] = system: 647-V (Bladder Carcinoma)
How it was run: as §1

[3] = system: PA-TU-8902 (Pancreatic Carcinoma)
How it was run: as §1

[4] = system: SW948 (Colorectal Carcinoma)
How it was run: as §1

[5] = system: JHH-6 (Hepatocellular Carcinoma)
How it was run: as §1

[6] = system: HCT-116 (Colorectal Carcinoma)
How it was run: as §1

[7] = system: NOMO-1 (Acute Myeloid Leukemia)
How it was run: as §1

HCC38 (Breast Carcinoma) = system: HCC38 (Breast Carcinoma)
How it was run: as §1

[8] = system: DOK (Oral Cavity Carcinoma)
How it was run: as §1

[9] = system: U-118-MG (Low Grade Glioma)
How it was run: as §1

[10] = system: MES-SA (Other Solid Carcinomas)
How it was run: as §1

[11] = system: HOP-92 (Non-Small Cell Lung Carcinoma)
How it was run: as §1

[12] = system: SKN-3 (Head and Neck Carcinoma)
How it was run: as §1

MCF7 (Breast Carcinoma) = system: MCF7 (Breast Carcinoma)
How it was run: as §1

[13] = system: HLE (Hepatocellular Carcinoma)
How it was run: as §1

[14] = system: HCC1143 (Breast Carcinoma)
How it was run: as §1

[15] = system: YT (Other Blood Carcinomas)
How it was run: as §1

[16] = system: SK-UT-1 (Other Solid Carcinomas)
How it was run: as §1

Structure (SMILES)	Bliss excess [1]	Bliss excess (CS1 (Chondrosarcoma))	Bliss excess [2]	Bliss excess [3]	Bliss excess [4]	Bliss excess [5]	Bliss excess [6]	Bliss excess [7]	Bliss excess (HCC38 (Breast Carcinoma))	Bliss excess [8]	Bliss excess [9]	Bliss excess [10]	Bliss excess [11]	Bliss excess [12]	Bliss excess (MCF7 (Breast Carcinoma))	Bliss excess [13]	Bliss excess [14]	Bliss excess [15]	Bliss excess [16]
C[C@@H](c1ccc2nccn2c1)n1nnc2ncc(-c3cnn(C)c3)nc21 [Savolitinib] + Cc1c2c(nn1C)CSCc1cc(n(C)n1)CSc1cc(c3ccccc3c1)OCCCc1c(C(=O)O)n(C)c3c-2c(Cl)ccc13 [AZD5991] (first compound max 1 µM, 7x7, partner max 1 µM)	0.0064	-0.031	-0.0594	-0.0699	-0.0305	-0.0727	-0.0593	0.0497	-0.0279	-0.0681	0.0095	-0.0465	-0.0338	-0.0758	-0.0242	-0.0053	0.0108	-0.0156	0.0093
Cn1cnc2c(F)c(Nc3ccc(Br)cc3Cl)c(C(=O)NOCCO)cc21 [Selumetinib] + C=CCn1c(=O)c2cnc(Nc3ccc(N4CCN(C)CC4)cc3)nc2n1-c1cccc(C(C)(C)O)n1 [AZD1775] (first compound max 10 µM, partner max 1 µM)	-0.115	-0.0195	-0.0359	0.0655	-0.0258	-0.0963	-0.0286	-0.0509	-0.0768	0.0043	-0.061	-0.0289	-0.056	0.0226	-0.079	-0.0358	-0.0112	0.0002	-0.0042
COc1nnc2ccc(N3CCC(c4ccc(OCCN5CCN(C)C(=O)[C@H]5C)cc4)CC3)nn12 [AZD5153] + CCN(CCO)CCCOc1ccc2c(Nc3cc(CC(=O)Nc4cccc(F)c4)[nH]n3)ncnc2c1 [AZD2811] (first compound max 1 µM, 7x7, partner max 1 µM)	0.0116	-0.0284	0.0236	-0.0246	-0.102	-0.0683	-0.0384	-0.0225	-0.0398	-0.0906	-0.0317	-0.0028	-0.079	-0.0436	-0.0721	-0.0177	-0.0474	-0.0579	-0.0144
CC(=O)c1c(C)c2cnc(Nc3ccc(N4CCNCC4)cn3)nc2n(C2CCCC2)c1=O [Palbociclib] + CC1(C)CCC(CN2CCN(c3ccc(C(=O)NS(=O)(=O)c4ccc(NCC5CCOCC5)c([N+](=O)[O-])c4)c(Oc4cnc5[nH]ccc5c4)c3)CC2)=C(c2ccc(Cl)cc2)C1 [Venetoclax] (first compound max 10 µM, 7x7, partner max 1 µM)	-0.0505	-0.0457	-0.0439	-0.029	-0.089	-0.0461	-0.0285	-0.0032	-0.0437	-0.0542	0.0308	0.0594	-0.0166	-0.07	-0.0334	-0.0399	-0.0237	-0.13	-0.0343
NC1(C(=O)N[C@@H](CCO)c2ccc(Cl)cc2)CCN(c2ncnc3[nH]ccc23)CC1 [Capivasertib] + CCN(CCO)CCCOc1ccc2c(Nc3cc(CC(=O)Nc4cccc(F)c4)[nH]n3)ncnc2c1 [AZD2811] (first compound max 10 µM, 7x7, partner max 1 µM)	-0.0412	-0.0211	-0.0332	-0.0381	-0.0161	-0.0301	0.0513	-0.0085	0.0054	-0.0355	-0.0475	0.0165	-0.0285	-0.0524	0.0943	0.0121	0.0137	0.002	0.0666
CC(=O)c1c(C)c2cnc(Nc3ccc(N4CCNCC4)cn3)nc2n(C2CCCC2)c1=O [Palbociclib] + Cn1cnc2c(F)c(Nc3ccc(Br)cc3Cl)c(C(=O)NOCCO)cc21 [Selumetinib] (first compound max 10 µM, 7x7, partner max 10 µM)	-0.0471	0.0219	-0.035	0.0639	-0.0078	0.0291	0.0697	-0.014	-0.0291	0.0057	-0.0114	-0.0009	0.0142	0.0345	-0.0013	-0.0418	0.0325	-0.0471	-0.033
NC1(C(=O)N[C@@H](CCO)c2ccc(Cl)cc2)CCN(c2ncnc3[nH]ccc23)CC1 [Capivasertib] + C[C@@H]1COCCN1C2=NC(=NC(=C2)C3(CC3)[S@](=N)(=O)C)C4=C5C=CNC5=NC=C4 [AZD6738] (first compound max 10 µM, 7x7, partner max 10 µM)	-0.0062	-0.0517	-0.0386	0.0247	-0.102	-0.0229	-0.0432	-0.0579	-0.0366	-0.0681	-0.0276	-0.0719	-0.0518	-0.0564	-0.0707	-0.038	-0.105	-0.0249	-0.0983
